The target of experiment [1] is T1, Serine/threonine-protein kinase Nek1 (Homo sapiens) (UniProt Q96PY6).
T1 sequence (whole entry): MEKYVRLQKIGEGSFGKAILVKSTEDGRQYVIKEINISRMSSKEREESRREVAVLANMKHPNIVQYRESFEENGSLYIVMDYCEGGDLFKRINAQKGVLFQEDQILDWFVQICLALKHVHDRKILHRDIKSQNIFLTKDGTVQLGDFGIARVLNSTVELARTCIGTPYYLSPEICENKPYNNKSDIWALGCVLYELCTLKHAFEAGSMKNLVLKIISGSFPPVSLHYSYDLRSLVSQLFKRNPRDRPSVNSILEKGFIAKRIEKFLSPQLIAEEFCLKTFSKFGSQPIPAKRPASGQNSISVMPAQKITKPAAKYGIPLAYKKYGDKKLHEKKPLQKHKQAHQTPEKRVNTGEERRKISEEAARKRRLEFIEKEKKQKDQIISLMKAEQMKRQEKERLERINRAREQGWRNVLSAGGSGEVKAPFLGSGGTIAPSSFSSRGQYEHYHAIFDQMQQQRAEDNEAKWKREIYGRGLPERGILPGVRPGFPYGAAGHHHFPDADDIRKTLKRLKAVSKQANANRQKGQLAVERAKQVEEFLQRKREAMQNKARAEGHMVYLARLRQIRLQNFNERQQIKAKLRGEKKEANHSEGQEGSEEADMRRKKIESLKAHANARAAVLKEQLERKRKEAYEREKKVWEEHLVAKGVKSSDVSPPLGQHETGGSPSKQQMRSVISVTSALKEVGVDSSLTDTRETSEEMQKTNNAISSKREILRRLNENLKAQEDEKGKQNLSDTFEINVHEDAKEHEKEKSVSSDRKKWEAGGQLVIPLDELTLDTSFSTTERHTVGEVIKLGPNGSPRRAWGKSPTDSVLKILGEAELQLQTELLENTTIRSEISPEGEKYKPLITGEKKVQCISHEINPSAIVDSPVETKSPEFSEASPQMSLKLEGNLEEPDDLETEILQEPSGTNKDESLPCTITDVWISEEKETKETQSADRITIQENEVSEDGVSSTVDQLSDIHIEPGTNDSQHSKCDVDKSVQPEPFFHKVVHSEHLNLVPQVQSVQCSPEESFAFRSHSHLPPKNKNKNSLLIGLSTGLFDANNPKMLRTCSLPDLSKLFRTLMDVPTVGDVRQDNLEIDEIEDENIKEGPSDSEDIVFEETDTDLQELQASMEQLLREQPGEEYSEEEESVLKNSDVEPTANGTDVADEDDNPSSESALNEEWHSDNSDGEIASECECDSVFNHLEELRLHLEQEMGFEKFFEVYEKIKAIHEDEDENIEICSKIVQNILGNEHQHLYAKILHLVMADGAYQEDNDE
Description: Inhibition of human recombinant NEK1 at 40 nM related to control ULK1.

Experiment [2] concerns the target Serine/threonine-protein kinase Nek7 (Homo sapiens) (UniProt Q8TDX7). The experiment is described as follows: Inhibition of human recombinant NEK7 at 40 nM in presence of ATP by radiometric assay relative to control.
In experiment [3] the target is T2, Dual specificity mitogen-activated protein kinase kinase 6 (Homo sapiens) (UniProt P52564).
T2 sequence (whole entry): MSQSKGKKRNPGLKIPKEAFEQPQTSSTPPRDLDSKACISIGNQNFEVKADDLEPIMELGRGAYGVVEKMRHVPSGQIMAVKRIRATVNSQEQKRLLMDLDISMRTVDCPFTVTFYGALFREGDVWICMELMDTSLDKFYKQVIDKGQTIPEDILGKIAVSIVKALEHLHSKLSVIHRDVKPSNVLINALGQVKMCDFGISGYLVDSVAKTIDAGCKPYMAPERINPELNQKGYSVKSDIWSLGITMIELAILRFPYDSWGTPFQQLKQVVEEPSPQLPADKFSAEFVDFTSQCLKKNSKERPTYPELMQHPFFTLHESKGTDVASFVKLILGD
Description: Inhibition of human recombinant MAP2K6 at 500 nM related to control ULK1.

The target in experiment [4] is Serine/threonine-protein kinase 33 (Homo sapiens) (UniProt Q9BYT3). The experiment is described as follows: Inhibition of human recombinant STK33 at 500 nM in presence of ATP by radiometric assay relative to control.
Serine/threonine-protein kinase 33 (Homo sapiens), sequence (Q9BYT3 whole entry, looked up): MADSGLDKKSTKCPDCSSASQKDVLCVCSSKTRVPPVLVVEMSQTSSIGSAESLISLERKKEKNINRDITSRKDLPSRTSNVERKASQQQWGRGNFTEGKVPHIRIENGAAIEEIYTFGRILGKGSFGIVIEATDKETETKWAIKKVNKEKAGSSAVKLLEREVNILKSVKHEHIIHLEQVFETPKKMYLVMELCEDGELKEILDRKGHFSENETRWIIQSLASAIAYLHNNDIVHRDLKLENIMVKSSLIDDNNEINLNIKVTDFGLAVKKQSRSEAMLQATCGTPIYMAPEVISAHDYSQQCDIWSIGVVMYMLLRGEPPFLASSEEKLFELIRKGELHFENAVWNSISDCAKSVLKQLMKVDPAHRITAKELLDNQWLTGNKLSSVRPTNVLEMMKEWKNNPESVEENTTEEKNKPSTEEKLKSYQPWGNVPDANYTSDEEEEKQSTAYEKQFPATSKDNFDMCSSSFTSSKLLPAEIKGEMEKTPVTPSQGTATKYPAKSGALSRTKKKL
In experiment [5] the target is Transcription initiation factor TFIID subunit 1-like (Homo sapiens) (UniProt Q8IZX4). Description: Inhibition of human recombinant TAF1L at 500 nM in presence of ATP by radiometric assay relative to control.
Transcription initiation factor TFIID subunit 1-like (Homo sapiens), sequence (Q8IZX4 whole entry): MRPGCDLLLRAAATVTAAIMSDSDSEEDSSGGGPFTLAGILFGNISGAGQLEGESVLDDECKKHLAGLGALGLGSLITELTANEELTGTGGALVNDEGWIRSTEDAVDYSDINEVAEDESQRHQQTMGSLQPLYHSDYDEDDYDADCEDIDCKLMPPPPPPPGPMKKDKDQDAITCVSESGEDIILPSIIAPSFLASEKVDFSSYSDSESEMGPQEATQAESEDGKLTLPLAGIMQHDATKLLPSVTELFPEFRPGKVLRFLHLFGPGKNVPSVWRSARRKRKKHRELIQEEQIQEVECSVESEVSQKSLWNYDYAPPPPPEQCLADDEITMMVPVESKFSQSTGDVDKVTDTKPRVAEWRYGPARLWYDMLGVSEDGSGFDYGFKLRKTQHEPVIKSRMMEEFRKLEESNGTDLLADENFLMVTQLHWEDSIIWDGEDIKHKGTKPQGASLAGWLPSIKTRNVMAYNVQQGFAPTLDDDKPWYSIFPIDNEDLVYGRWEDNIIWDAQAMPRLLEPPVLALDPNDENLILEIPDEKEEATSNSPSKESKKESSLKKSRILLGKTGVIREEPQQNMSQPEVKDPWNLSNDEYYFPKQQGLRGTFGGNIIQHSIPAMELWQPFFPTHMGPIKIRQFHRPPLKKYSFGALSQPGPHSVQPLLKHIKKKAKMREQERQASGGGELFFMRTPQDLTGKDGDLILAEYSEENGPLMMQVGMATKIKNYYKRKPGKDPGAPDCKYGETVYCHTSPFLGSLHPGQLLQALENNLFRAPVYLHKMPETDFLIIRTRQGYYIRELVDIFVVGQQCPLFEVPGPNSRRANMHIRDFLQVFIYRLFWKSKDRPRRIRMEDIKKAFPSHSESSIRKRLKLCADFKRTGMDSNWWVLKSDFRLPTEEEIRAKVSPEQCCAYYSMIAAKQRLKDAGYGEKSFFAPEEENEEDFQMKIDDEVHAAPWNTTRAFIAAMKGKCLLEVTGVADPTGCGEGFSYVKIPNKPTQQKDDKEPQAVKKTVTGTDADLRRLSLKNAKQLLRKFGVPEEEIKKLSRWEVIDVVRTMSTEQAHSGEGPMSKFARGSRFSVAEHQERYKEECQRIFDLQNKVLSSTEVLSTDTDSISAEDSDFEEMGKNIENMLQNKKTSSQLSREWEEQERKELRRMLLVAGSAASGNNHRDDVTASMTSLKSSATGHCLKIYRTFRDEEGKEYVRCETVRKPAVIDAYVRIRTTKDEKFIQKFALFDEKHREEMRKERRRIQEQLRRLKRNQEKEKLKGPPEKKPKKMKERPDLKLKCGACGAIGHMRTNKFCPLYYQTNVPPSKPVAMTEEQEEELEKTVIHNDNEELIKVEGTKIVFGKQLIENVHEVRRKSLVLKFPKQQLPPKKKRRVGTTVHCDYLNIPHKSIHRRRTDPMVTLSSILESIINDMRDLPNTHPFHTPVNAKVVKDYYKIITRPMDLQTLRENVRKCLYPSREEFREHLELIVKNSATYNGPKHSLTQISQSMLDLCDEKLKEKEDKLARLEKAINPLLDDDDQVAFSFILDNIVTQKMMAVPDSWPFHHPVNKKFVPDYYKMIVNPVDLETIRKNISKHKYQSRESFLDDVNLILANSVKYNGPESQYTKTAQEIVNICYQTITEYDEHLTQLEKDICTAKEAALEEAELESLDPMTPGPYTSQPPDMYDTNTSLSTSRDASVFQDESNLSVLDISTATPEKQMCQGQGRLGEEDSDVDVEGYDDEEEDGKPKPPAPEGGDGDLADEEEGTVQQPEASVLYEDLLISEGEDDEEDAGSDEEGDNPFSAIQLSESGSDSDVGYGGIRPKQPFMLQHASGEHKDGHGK
The target of experiment [6] is T3, MAPK/MAK/MRK overlapping kinase (Homo sapiens) (UniProt Q9UQ07).
T3 sequence (whole entry): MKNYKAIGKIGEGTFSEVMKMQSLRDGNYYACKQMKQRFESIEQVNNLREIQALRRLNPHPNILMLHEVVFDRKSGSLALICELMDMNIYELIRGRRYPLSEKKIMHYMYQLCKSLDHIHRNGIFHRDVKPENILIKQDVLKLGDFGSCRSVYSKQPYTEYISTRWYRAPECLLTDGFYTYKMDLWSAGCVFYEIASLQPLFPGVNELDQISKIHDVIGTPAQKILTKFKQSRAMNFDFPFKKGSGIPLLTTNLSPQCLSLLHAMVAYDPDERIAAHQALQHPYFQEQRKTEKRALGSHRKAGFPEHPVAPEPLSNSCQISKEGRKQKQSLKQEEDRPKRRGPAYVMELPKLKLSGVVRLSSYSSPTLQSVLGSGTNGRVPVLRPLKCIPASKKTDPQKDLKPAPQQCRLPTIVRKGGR
The experiment is described as follows: Inhibition of human recombinant MOK at 500 nM in presence of ATP by radiometric assay relative to control.

Serine/threonine-protein kinase Nek7 (Homo sapiens), sequence (Q8TDX7 whole entry, looked up): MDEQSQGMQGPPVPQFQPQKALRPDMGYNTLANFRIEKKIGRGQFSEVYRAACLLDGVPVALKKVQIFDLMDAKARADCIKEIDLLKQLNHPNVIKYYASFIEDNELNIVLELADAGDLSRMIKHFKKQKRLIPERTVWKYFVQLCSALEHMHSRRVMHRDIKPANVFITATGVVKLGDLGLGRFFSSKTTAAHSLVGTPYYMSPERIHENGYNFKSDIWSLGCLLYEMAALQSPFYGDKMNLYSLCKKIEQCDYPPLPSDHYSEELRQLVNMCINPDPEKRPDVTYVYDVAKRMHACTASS

What is called inhibition is the drop in the measured response relative to a control, in per cent. For `O=C(N[C@@H](C1CC1)C(F)(F)F)c1cc(-c2cnn3cc(-c4ccc(F)cc4)cnc23)cs1`, in experiment [1], the fold change (FC) amounted to 0. The inhibition in experiment [2] is 0%.

Turning to `CNC(=O)c1ccccc1Oc1nc(Nc2cc(OC)c(OC)c(OC)c2)ncc1Br`, the fold change (FC) in experiment [3] is 0.07. Further, the inhibition in experiment [4] amounted to 4%; in experiment [5], 0%; in experiment [6], 2%.
